{"source": "patent US11173149B2", "about": "“Inhibition of protein disulfide-isomerase A3” (Romark Laboratories L.C., priority 2017, dated 2021)", "key": {"[1]": {"test_system": "PR8 IAV HA transport to the plasma membrane", "type": "cell-based", "conditions": "NTZ 5 μg/ml after adsorption, A549 cells, PR8 5 PFU/cell, 6 h p.i."}, "[2]": {"test_system": "PDIA3-HA protein-protein interaction", "type": "cell-based, canine"}, "[3]": {"target": "T1, recombinant human PDIA3 (Homo sapiens, UniProt P30101)", "T1 construct": "full-length recombinant human PDIA3 (rhPDIA3, Abcam); purchased Abcam", "T1 sequence (P30101 25-505)": "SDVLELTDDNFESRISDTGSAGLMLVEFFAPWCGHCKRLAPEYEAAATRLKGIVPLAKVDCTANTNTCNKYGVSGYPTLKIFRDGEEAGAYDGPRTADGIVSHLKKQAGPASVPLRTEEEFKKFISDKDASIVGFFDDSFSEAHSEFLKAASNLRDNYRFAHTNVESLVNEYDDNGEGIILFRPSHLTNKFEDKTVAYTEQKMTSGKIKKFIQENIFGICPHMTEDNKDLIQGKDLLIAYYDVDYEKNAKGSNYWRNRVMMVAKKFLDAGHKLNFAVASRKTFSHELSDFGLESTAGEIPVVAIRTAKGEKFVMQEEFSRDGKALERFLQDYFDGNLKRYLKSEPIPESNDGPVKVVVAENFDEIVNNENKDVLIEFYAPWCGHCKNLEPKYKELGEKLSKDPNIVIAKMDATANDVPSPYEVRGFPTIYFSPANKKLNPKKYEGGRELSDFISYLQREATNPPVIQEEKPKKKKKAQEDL", "experiment": "Disulfide reductase activity assay with Di-E-GSSG substrate", "type": "biochemical", "procedure": "PDIA3 activity was determined by enzyme-dependent disulfide reduction assay. The disulfide reductase activity was tested in vitro using dieosin glutathione disulfide (Di-E-GSSG) as substrate. Recombinant human PDIA3 (rhPDIA3) (2 nM), pre-incubated with different concentrations of TIZ or control diluent (DMSO) for 10 min. at room temperature, was added to Di-E-GSSG (150 nM) in the presence of 5 μM DTT (arrow). PDIA3 reductase activity cleaves the S—S bond of Di-E-GSSG resulting in the release of fluorescent 2-eosin-GSH (EGSH). The increase in fluorescence was monitored at λ=545 nm with excitation at λ=525 nm, and expressed as relative fluorescence units (RFU).\nFIG. 4A-B show effect of TIZ on PDIA3 and PDIA1 disulfide reductase activity. Effect of TIZ (5 μg/ml) on PDIA3 and PDIA1 (PDI) activities were measured by Di-E-GSSG assay using the same concentration (20 nM) of PDIA3 or PDIA1.\nDisulfide reductase (DR) activity of PDIA3 or protein disulfide isomerase (PDI) was monitored by sensitive fluorescent assay using dieosin glutathione disulfide (Di-E-GSSG) (Cayman Chemical) as a substrate. DR activity assay was performed in a reaction buffer (0.1 M potassium phosphate, pH 7.0; 2 mM EDTA) by adding 2 or 20 nM of full-length recombinant human PDIA3 (rhPDIA3, Abcam) or PDI (rhPDIA1, R&D Systems) to different concentrations of Di-E-GSSG in the presence of 5 μM DTT. The reductase activity of disulfide isomerases cleaves the S—S bond of Di-E-GSSG resulting in the release of fluorescent 2-eosin-GSH (EGSH). To test the effect of TIZ on PDIA3 and PDI reductase activity, recombinant human PDIA3 or PDIA1 were previously incubated for 10 min at room temperature with different concentrations of TIZ or control diluent (DMSO) in the reaction buffer, unless differently specified. The increase in fluorescence was monitored at λ=545 nm with excitation at λ=525 nm at 25° C. with continuous stirring, and expressed as relative fluorescence units (RFU).\nThiazolides inhibit PDIA3 disulfide isomerase activity. To investigate whether thiazolides may directly affect PDIA3 disulfide-isomerase activity, we performed a fluorescence-based reductase in vitro assay using purified full-length recombinant human PDIA3 and oxidized glutathione coupled to dieosin (Di-E-GSSG) as a substrate. NTZ's circulating active metabolite, TIZ, was utilized for these studies.\nRecombinant human PDIA3 (rhPDIA3) (2 nM) was pre-incubated with different concentrations of TIZ or control diluent (DMSO) for 10 min. at room temperature. […] PDIA3 reductase activity cleaves the S—S bond of Di-E-GSSG resulting in the release of fluorescent 2-eosin-GSH (EGSH), that is measured in function of time by fluorimetry, as described in Materials and Methods. […]"}}}
{"smiles": "CC(=O)Oc1ccccc1C(=O)Nc1ncc([N+](=O)[O-])s1", "note": "[NTZ, nitazoxanide]", "values": [{"measurement": "plasma membrane-incorporated HA (HA transport to the plasma membrane)", "setting": "[1]", "result": "inhibits PR8 IAV HA transport to the plasma membrane"}, {"measurement": "HA-PDIA3 interaction detected by PLA", "setting": "[2]", "result": "PDIA3 strongly interacts with HA forming large spots"}, {"measurement": "PDIA3 disulfide-isomerase activity in an in vitro assay (conclusion statement)", "setting": "[3]", "result": "directly inhibits PDIA3 disulfide-isomerase activity"}]}
{"smiles": "O=C(Nc1ncc([N+](=O)[O-])s1)c1ccccc1O", "note": "[TIZ, tizoxanide]", "values": [{"measurement": "effect on PDIA3 versus human PDIA1 reductase activity", "setting": "[3]; TIZ 5 μg/ml, PDIA3 or PDIA1 20 nM, preliminary experiment", "result": "preferentially inhibits PDIA3 reductase activity"}, {"measurement": "lowest TIZ concentration tested at which inhibitory activity was observed", "setting": "[3]; rhPDIA3 2 nM, Di-E-GSSG 150 nM, 5 μM DTT", "result": 1, "unit": "µg/mL"}, {"measurement": "PDIA3 disulfide reductase activity (time-course of EGSH fluorescence)", "setting": "[3]; rhPDIA3 2 nM, pre-incubated 10 min with different TIZ concentrations, Di-E-GSSG 150 nM, 5 μM DTT", "result": "inhibits PDIA3 activity in a dose-dependent manner"}]}
